Experimental data published in US20260274886A1, “CRYSTALLINE FORMS OF A FARNESOID X RECEPTOR AGONIST” (ALFASIGMA S.P.A., priority 2023, published 2026).
Read-outs that look alike come from different tables or passages of the source.

Columns and labels:
[1] = Dynamic vapour sorption (DVS) analysis; format: physicochemical
Description: Approximately 10-20 mg of sample is placed into a mesh vapour sorption balance pan and loaded into a DVS Advantage dynamic vapour sorption balance by Surface Measurement Systems. The sample is subjected to a ramping profile from 40-90% relative humidity (RH) at 10% increments, maintaining the sample at each step until a stable weight has been achieved (dm/dt 0.004%, minimum step length 30 minutes, maximum step length 500 minutes) at 25° C. After completion of the sorption cycle, the sample is dried using the same procedure to 0% RH and then a second sorption cycle back to 40% RH. Two cycles are performed. The weight change during the sorption/desorption cycles are plotted, allowing for the hygroscopic nature of the sample to be determined. XRPD analysis is then carried out on any solid retained.
A dynamic vapour sorption analysis of Crystalline Form 1 is in FIG. 4. […] There is a loss of 1.9 wt. % on the first desorption cycle. There is an uptake of 1.1 wt. % (0.3 equivalents water) on the second sorption between 0 and 90% RH, followed by a loss of about 1.25 wt. % on desportion. There is a loss of 1.2 wt. % difference from the input to the end of the experiment. […] Crystalline Form 1 remains as the bulk form.

[2] = Form change on drying under vacuum (XRPD wet vs dry, thermal cycling experiments); format: physicochemical; settings: dried at ambient temperature under vacuum for 2 h
Description: Additional solvent is added if necessary. Mixture is thermally cycled between 4° and 5° C. with 0.1° C./min cooling and heating rates and 1 h holds at 40 and 5° C. After 21 h cycling, additional solvent is added if thick slurry is observed and anti-solvent (heptane) is added if clear solution is observed. After a further 26 h thermal cycling, observations are recorded at 5° C. Material is isolated by centrifugation if necessary and analyzed by XRPD. […] XRPD analysis is repeated.

[3] = DVS, 25° C., between 0 and 90% RH

In the case of CC[C@H]1[C@@H](O)[C@@H]2[C@H]([C@@H](O)C[C@]3(C)[C@@H]([C@H](C)CCC(=O)O)CC[C@@H]23)[C@@]2(C)CC[C@@H](O)C[C@@H]12 [Crystalline Form 1, 3α,7α,11β-trihydroxy-6α-ethyl-5β-cholan-24-oic acid], the “uptake on the second sorption” value [1, 3] is reported as 1.1 wt. %, the “uptake on the second sorption, equivalents water” value [1, 3] is reported as 0.3 equivalents water and the “loss on the first desorption cycle” value ([1]; DVS, 25° C., first desorption cycle) is reported as 1.9 wt. %. For the same molecule, the “mass change on the first sorption cycle” value ([1]; DVS, 25° C., first sorption cycle) was “initial mass loss on the first sorption cycle before a slight uptake is observed”, the “loss on desorption after second sorption” value ([1]; DVS, 25° C., second desorption) was “about 1.25 wt. %” and the “loss, difference from the input to the end of the experiment” value ([1]; DVS, 25° C., two cycles) was 1.2 wt. %. For the same molecule, the “XRPD post-DVS” value ([1]; solid retained after DVS) was “slight loss of crystallinity”, the “HPLC-CAD Purity (% w/w)” value (7 day stability, 40° C./75% RH) was 97.1 % w/w and the “HPLC-CAD Purity (% w/w)” value (7 day stability, 80° C.) was 96.4 % w/w. The “HPLC-CAD Purity (% w/w)” value (7 day stability, Ambient Light) was 97.5 % w/w, the XRPD (7 day stability, Ambient Light) was 1^ and the “stability under stressed conditions” value (summary statement referring to DVS and storage data in Example 6) was “stable under stressed conditions”.

For CC[C@H]1[C@@H](O)[C@@H]2[C@H]([C@@H](O)C[C@]3(C)[C@@H]([C@H](C)CCC(=O)O)CC[C@@H]23)[C@@]2(C)CC[C@@H](O)C[C@@H]12 [Crystalline Form 2, 3α,7α,11β-trihydroxy-6α-ethyl-5β-cholan-24-oic acid], the form after drying [2] was “converts to Form 3”.
